Target: T1, Endothelial lipase (Homo sapiens, UniProt Q9Y5X9)
T1 sequence (Q9Y5X9 whole entry): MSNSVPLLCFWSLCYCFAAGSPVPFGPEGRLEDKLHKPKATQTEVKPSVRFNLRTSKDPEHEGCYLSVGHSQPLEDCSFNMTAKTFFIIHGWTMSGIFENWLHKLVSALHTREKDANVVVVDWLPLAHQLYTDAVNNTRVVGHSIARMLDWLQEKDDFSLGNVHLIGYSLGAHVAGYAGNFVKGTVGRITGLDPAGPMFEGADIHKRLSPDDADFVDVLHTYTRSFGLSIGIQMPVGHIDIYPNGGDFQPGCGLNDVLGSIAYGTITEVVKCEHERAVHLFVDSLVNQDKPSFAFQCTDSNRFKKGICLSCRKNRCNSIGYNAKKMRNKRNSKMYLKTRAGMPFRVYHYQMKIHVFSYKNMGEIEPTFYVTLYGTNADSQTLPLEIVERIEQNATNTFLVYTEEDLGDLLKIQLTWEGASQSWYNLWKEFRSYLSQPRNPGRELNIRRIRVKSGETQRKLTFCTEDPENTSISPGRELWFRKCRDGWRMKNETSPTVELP
Assay: Enzymatic Assay: The enzymatic assay was measured using white, opaque 96-well half area plates. Each well contained 60 μL of assay buffer (50 mM HEPES pH 8.0, 50 mM NaCl and 1 mM CaCl2) and 2 ul of a DMSO solution containing compound of interest. Conditioned media obtained from HT-1080 cells, which were transformed by RAGE technology (Athersys) to overexpress endogenous EL, was added and the reaction was allowed to incubate for 20 min at 37° C. with gentle agitation. The reaction was started by the addition of 20 μL of a 1:4 dilution of vesicles. The final total reaction volume was 100 μL. The reaction rates were measured on a Gemini plate reader with an excitation wavelength of 488 nm and an emission of 530 nm. Readings were taken every 20 seconds for 10 min with agitation between each reading.
Assay type: cell-based

SMILES	IC50 [nM]
O=C1NC(=O)C(Cc2nnc(C(=O)c3nc4ccc(-c5ccccc5)cc4s3)o2)N1 (stereo not given)	< 10
CC1(Cc2nnc(C(=O)c3nc4ccc(-c5ccccc5)cc4s3)o2)NC(=O)N(CC(F)(F)F)C1=O (stereo not given)	< 10
NS(=O)(=O)Cc1nnc(C(=O)c2nc3ccc(-c4ccccc4)cc3s2)o1	< 10
COc1nc(-c2nnc(C(=O)c3nc4ccc(-c5ccc(F)cc5)cc4s3)o2)c(OCc2ccccc2)c(=O)[nH]1	122
COc1nc(-c2nnc(C(=O)c3nc4ccc(-c5ccccc5)cc4s3)o2)c(OCc2ccccc2)c(=O)[nH]1	76
O=C1NC(=O)C(Cc2nnc(C(=O)c3nc4ccc(-c5ccccc5)cc4s3)o2)S1 (stereo not given)	< 10

Other lines, results leading:

IC50 [nM]	SMILES
< 10	C[C@@H](NC(=O)OC(C)(C)C)c1nnc(C(=O)c2nc3ccc(-c4ccccc4)cc3s2)o1
4.8	CC(C)(C)CN1CC(c2nnc(C(=O)c3nc4ccc(-c5ccc(F)cc5)cc4s3)o2)C1
66	C[C@H](NC(=O)OC(C)(C)C)c1nnc(C(=O)c2nc3ccc(-c4ccccc4)cc3s2)o1
18	CC(C)(C)CN1CC(c2nnc(C(=O)c3nc4c(F)cc(-c5ccccc5)cc4s3)o2)C1

Source: ChEMBL document CHEMBL3886313, “Ketone linked benzothiazole inhibitors of endothelial lipase” (2015)
